Here are results for 18 compounds from EP2857388A1, “Azoles containing sulfone” (Grünenthal GmbH, priority 2013, dated 2015).

The assay deals with T1, human B1R (Homo sapiens, UniProt P46663).
T1 construct: expressed in transfected cells; host or cells: CHO K1 cells (Chinese Hamster Ovary), stably transfected
T1 sequence (P46663 1-353): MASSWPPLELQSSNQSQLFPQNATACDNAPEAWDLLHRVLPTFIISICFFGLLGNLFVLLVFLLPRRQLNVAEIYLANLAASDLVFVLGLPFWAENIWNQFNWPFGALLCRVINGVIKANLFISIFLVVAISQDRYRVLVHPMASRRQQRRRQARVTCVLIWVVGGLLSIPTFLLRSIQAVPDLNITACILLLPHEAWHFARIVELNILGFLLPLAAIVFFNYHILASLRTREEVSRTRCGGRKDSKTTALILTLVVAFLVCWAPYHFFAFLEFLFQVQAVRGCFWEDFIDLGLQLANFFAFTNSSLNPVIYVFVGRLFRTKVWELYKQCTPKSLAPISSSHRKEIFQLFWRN
The assay is described as follows: Functional assay at bradykinin receptor 1 (B1R): Ca2+ fluorescence (Fluo-4) in FLIPR/Novostar, antagonist mode. Conditions: test substance 10 µM; CHO K1 cells stably transfected with human B1R gene (hB1R-Zellen); agonist Lys-Des-Arg9-Bradykinin at EC80; % inhibition relative to maximal achievable inhibition; read-out: % Inhibierung (human B1R) bei 10 µM. It is filed as cell-based. The method, then: Die agonistische bzw. antagonistische Wirkung von Substanzen kann am Bradykinin Rezeptor 1 (B1R) der Spezies Mensch und Ratte mit ektopisch exprimierenden Zelllinien (CHO K1 Zellen) und mit Hilfe eines Ca^2+-sensitiven Farbstoffs (Fluo-4) im Fluorescent Imaging Plate Reader (FLIPR) quantifiziert werden. Die Angabe in % Aktivierung wird bezogen auf das Ca^2+-Signal nach Zugabe von Lys-Des-Arg^9-Bradykinin ([…]), bzw. Des-Arg^9-Bradykinin (100 nM). Antagonisten führen zu einer Unterdrückung des Ca^2+-Einstroms nach der Zugabe des Agonisten. Angegeben werden % Inhibition im Vergleich zu der maximal erreichbaren Inhibition.
Die agonistische bzw. antagonistische Wirkung von Substanzen kann am Bradykinin Rezeptor 1 (B1R) der Spezies Mensch und Ratte mit folgendem Assay bestimmt werden. Gemäß diesem Assay wird der intrazelluläre Ca^2+-Anstieg nach Gabe eines B1 R Agonisten mit Hilfe eines Ca^2+-sensitiven Farbstoffs (Typ Fluo-4, Molecular Probes Europe BV, Leiden NL) im Fluorescent Imaging Plate Reader (FLIPR, Molecular Devices, Sunnyvale, USA) und/oder im Novostar (BMG Labtech GmbH, Offenburg, DE) quantifiziert.
Es werden Chinese Hamster Ovary Zellen (CHO K1 Zellen) verwendet, die stabil mit dem humanen B1 R-Gen (hB1R-Zellen) bzw. dem B1 R-Gen der Ratte (rB1R-Zellen) transfiziert sind. Für funktionelle Untersuchungen werden diese Zellen auf schwarze 96-Loch-Platten mit klarem Boden (BD Biosciences, Heidelberg, DE oder Greiner, Frickenhausen, DE) in einer Dichte von 20.000 - 35.000 Zellen/Loch ausplattiert. Über Nacht werden die Zellen bei 37°C und 5 % CO2 in Kulturmedium (hB1 R-Zellen: Nutrient Mixture Ham's F12, Gibco Invitrogen GmbH, Karlsruhe, Deutschland oder DMEM, Sigma-Aldrich, Taufkirchen, Deutschland; rB1R-Zellen: D-MEM/F12, Gibco Invitrogen GmbH, Karlsruhe, DE) mit 10 Vol-% FBS (Fetal bovine serum, Gibco Invitrogen GmbH, Karlsruhe, DE oder PAN Biotech GmbH, Aidenbach, DE) belassen. Am folgenden Tag werden die Zellen mit 2,13 µM Fluo-4 (Molecular Probes Europe BV, Leiden, NL) in HBSS-Puffer (Hank's buffered saline solution, Gibco Invitrogen GmbH, Karlsruhe, DE) mit 2,5 mM Probenecid (Sigma-Aldrich, Taufkirchen, DE) und 10 mM HEPES (Sigma-Aldrich, Taufkirchen, DE) für 60 min bei 37°C beladen. Anschließend werden die Platten 2 x mit HBSS-Puffer gewaschen und mit HBSS-Puffer versetzt, der zusätzlich 0,1 % BSA (bovines Serumalbumin; Sigma-Aldrich, Taufkirchen, Deutschland), 5,6 mM Glucose und 0,05 % Gelatine (Merck KGaA, Darmstadt, DE) enthält. Nach einer weiteren Inkubation von 20 Minuten bei RT werden die Platten zur Ca^2+-Messung im FLIPR oder Novostar eingesetzt. Alternativ wird mit Puffer A (15 mM HEPES, 80 mM NaCl, 5 mM KCI, 1,2 mM CaCl2, 0,7 mM MgSO4, 2g/L Glucose, 2,5 mM Probenecid) gewaschen und mit Puffer A versetzt mit 2,5 µM Fluo-4 und 0,025 % Pluronic F127 (Sigma-Aldrich, Taufkirchen, DE) beladen. Danach werden die Zellen 2 x mit Puffer A gewaschen und für 30 Minuten mit Puffer A, der zusätzlich 0,05 % BSA und 0,05 % Gelatine enthält bei RT inkubiert und danach zur Ca^2+-Messung im FLIPR oder Novostar eingesetzt.
Die Ca^2+-abhängige Fluoreszenz wird dabei vor und nach Zugabe von Substanzen gemessen (λex = 488 nm, λem = 540 nm). Die Quantifizierung erfolgt durch die Messung der höchsten Fluoreszenzintensität (FC, Fluorescence Counts) über die Zeit.
Das FLIPR-Protokoll besteht aus 2 Substanzzugaben, die im FLIPR pipettiert werden. Bei Messungen im Novostar wird nur die zweite Substanzzugabe im Gerät pipettiert. Beide Geräte messen die Fluoreszenzintensität über die Zeit. Zunächst werden Testsubstanzen (10 µM) auf die Zellen pipettiert und der intrazelluläre Ca^2+-Anstieg mit der Kontrolle (hB1 R: Lys-Des-Arg^9-Bradykinin >= 50 nM; rB1 R: Des-Arg^9-Bradykinin >= 1 µM) verglichen. Daraus ergibt sich die Angabe in % Aktivierung bezogen auf das Ca^2+-Signal nach Zugabe von Lys-Des-Arg^9-Bradykinin (>= 50 nM), bzw. Des-Arg^9-Bradykinin (>=1 µM). Nach 6-20 Minuten Inkubation werden Lys-Des-Arg^9-Bradykinin (hB1 R) bzw. […]
`COc1cc(C)c(S(=O)(=O)Cc2noc(CC(=O)N(C)C3CCC(N4CCC(OC)CC4)CC3)n2)c(C)c1` (stereo not drawn) [SC-64, 2-[3-[[(4-Methoxy-2,6-dimethyl-phenyl)sulfonyl]-methyl]-[1,2,4]oxadiazol-5-yl]-N-[4-(4-methoxy-piperidin-1-yl)-cyclohexyl]-N-methyl-acetamid]: the inhibition at 10 µM worked out at 100%. On to `Cc1cccc(Cl)c1S(=O)(=O)Cc1noc(CC(=O)NC2CCC(N3CCN(C)CC3)CC2(C)C)n1` (stereo not drawn) [CC-98, 2-[3-[[(2-Chlor-6-methyl-phenyl)sulfonyl]-methyl]-[1,2,4]oxadiazol-5-yl]-N-[2,2-dimethyl-4-(4-methyl-piperazin-1-yl)-cyclohexyl]-acetamid], for which the inhibition at 10 µM stood at 100%.

As to `COc1cc(C)c(S(=O)(=O)Cc2noc(CC(=O)N(C)C3CCN(Cc4ccc(N5CCCC5)nc4)CC3)n2)c(C)c1` [SC-65, 2-[3-[[(4-Methoxy-2,6-dimethyl-phenyl)sulfonyl]-methyl]-[1,2,4]oxadiazol-5-yl]-N-methyl-N-[1-[(6-pyrrolidin-1-yl-pyridin-3-yl)-methyl]-piperidin-4-yl]-acetamid], the inhibition at 10 µM was found to be 100%. On to `COc1cc(C)c(S(=O)(=O)Cc2noc(CC(=O)N3CCC4(CCN(C)C4)C3)n2)c(C)c1` (stereo not drawn) [CC-130, 2-[3-[[(4-Methoxy-2,6-dimethyl-phenyl)sulfonyl]-methyl]-[1,2,4]oxadiazol-5-yl]-1-(2-methyl-2,8-diazaspiro[4.4]nonan-8-yl)-ethanon], for which the inhibition at 10 µM was determined as 99%. As to `COc1cc(C)c(S(=O)(=O)Cc2noc(C(=O)N3CCC4(CC3)CCN(c3ccncc3)C4)n2)c(C)c1` [CC-139, [3-[[(4-Methoxy-2,6-dimethyl-phenyl)sulfonyl]-methyl]-[1,2,4]oxadiazol-5-yl]-(3-pyridin-4-yl-3,8-diazaspiro[4.5]decan-8-yl)-methanon], the inhibition at 10 µM was found to be 100%.

As for `COc1cc(C)c(S(=O)(=O)Cc2noc(C(=O)N3CCC4(CCN(c5ccncc5)CC4)C3)n2)c(C)c1` [SC-04, [3-[[(4-Methoxy-2,6-dimethyl-phenyl)sulfonyl]-methyl]-[1,2,4]oxadiazol-5-yl]-(8-pyridin-4-yl-3,8-diazaspiro[4.5]decan-3-yl)-methanon], the inhibition at 10 µM was found to be 100%. For `COc1cc(C)c(S(=O)(=O)Cc2cc(C)n(CC(=O)NC3CCC(N(C)C)CC3)n2)c(C)c1` (stereo not drawn) [CC-154, N-(4-Dimethylamino-cyclohexyl)-2-[3-[[(4-methoxy-2,6-dimethyl-phenyl)sulfonyl]-methyl]-5-methyl-1 H-pyrazol-1-yl]-acetamid], the inhibition at 10 µM turned out to be 80%. Turning to `COc1cc(C)c(S(=O)(=O)Cc2noc(C(=O)NC3CCC(c4ccncc4)CC3(C)C)n2)c(C)c1` (stereo not drawn) [SC-31, N-(2,2-Dimethyl-4-pyridin-4-yl-cyclohexyl)-3-[[(4-methoxy-2,6-dimethyl-phenyl)sulfonyl]-methyl]-[1,2,4]oxadiazol-5-carbonsäure amid], the inhibition at 10 µM was determined as 97%. With `COc1cc(C)c(S(=O)(=O)Cc2noc(C(=O)NC3CCC(c4ccncc4)CC3)n2)c(C)c1` (stereo not drawn) [SC-18, 3-[[(4-Methoxy-2,6-dimethyl-phenyl)sulfonyl]-methyl]-N-(4-pyridin-4-yl-cyclohexyl)-[1,2,4]oxadiazol-5-carbonsäure amid], the inhibition at 10 µM came out at 97%. Regarding `COc1cc(C)c(S(=O)(=O)Cc2noc(CC(=O)N3CCC(N4CCN(C)CC4)CC3)n2)c(C)c1` [CC-131, 2-[3-[[(4-Methoxy-2,6-dimethyl-phenyl)sulfonyl]-methyl]-[1,2,4]oxadiazol-5-yl]-1-[4-(4-methyl-piperazin-1-yl)-piperidin-1-yl]-ethanon], the inhibition at 10 µM was found to be 100%.

As for `Cc1cccc(Cl)c1S(=O)(=O)Cc1noc(CC(=O)NC2CCC(N3CCCC3)CC2(C)C)n1` (stereo not drawn) [CC-91, 2-[3-[[(2-Chlor-6-methyl-phenyl)sulfonyl]-methyl]-[1,2,4]oxadiazol-5-yl]-N-(2,2-dimethyl-4-pyrrolidin-1-yl-cyclohexyl)-acetamid], the inhibition at 10 µM worked out at 97%. Regarding `Cc1cccc(Cl)c1S(=O)(=O)Cc1noc(CC(=O)N(C)C2CCNCC2(C)C)n1` (stereo not drawn) [CC-110, 2-[3-[[(2-Chlor-6-methyl-phenyl)sulfonyl]-methyl]-[1,2,4]oxadiazol-5-yl]-N-(3,3-dimethyl-piperidin-4-yl)-N-methyl-acetamid], the inhibition at 10 µM came to 87%. Turning to `COc1cc(C)c(S(=O)(=O)Cc2noc(CC(=O)NC3CCC(c4ccnc(OC)c4)CC3(C)C)n2)c(C)c1` (stereo not drawn) [SC-40, 2-[3-[[(4-Methoxy-2,6-dimethyl-phenyl)sulfonyl]-methyl]-[1,2,4]oxadiazol-5-yl]-N-[4-(2-methoxy-pyridin-4-yl)-2,2-dimethyl-cyclohexyl]-acetamid], the inhibition at 10 µM was determined as 100%. For the compound `COc1cc(C)c(S(=O)(=O)Cc2noc(CC(=O)N(C)C3CCN(c4ccncc4F)CC3)n2)c(C)c1` [SC-70, N-[1-(3-Fluor-pyridin-4-yl)-piperidin-4-yl]-2-[3-[[(4-methoxy-2,6-dimethyl-phenyl)sulfonyl]-methyl]-[1,2,4]oxadiazol-5-yl]-N-methyl-acetamid], the inhibition at 10 µM came out at 100%. Consider `CN(C)C1CCC(NC(=O)Cc2nc(CS(=O)(=O)c3ccc(Cl)c(Cl)c3)no2)CC1` (stereo not drawn) [CC-50, 2-[3-[[(3,4-Dichlorphenyl)sulfonyl]-methyl]-[1,2,4]oxadiazol-5-yl]-N-(4-dimethylamino-cyclohexyl)-acetamid], for which the inhibition at 10 µM came to 54%. Consider `COc1cc(C)c(S(=O)(=O)Cc2c(C)nn(CC(=O)NC3CCN(C(C)=O)CC3(C)C)c2C)c(C)c1` (stereo not drawn) [CC-179, N-(1-Acetyl-3,3-dimethyl-piperidin-4-yl)-2-[4-[[(4-methoxy-2,6-dimethyl-phenyl)sulfonyl]-methyl]-3,5-dimethyl-1 H-pyrazol-1-yl]-acetamid], for which the inhibition at 10 µM was determined as 44%. Take `COc1cc(C)c(S(=O)(=O)Cc2nc(C(=O)N(C)[C@H]3CCC[C@@H](N4CCN(C)CC4)C3)no2)c(C)c1` [SC-89, 5-[[(4-Methoxy-2,6-dimethyl-phenyl)sulfonyl]-methyl]-N-methyl-N-[(1S,3R)-3-(4-methyl-piperazin-1-yl)-cyclohexyl]-[1,2,4]oxadiazol-3-carbonsäure amid]: the inhibition at 10 µM stood at 100%. The result for `Cc1cccc(Cl)c1S(=O)(=O)Cc1noc(C(=O)NC2CCC(N3CCCC3)CC2(C)C)n1` (stereo not drawn) [CC-20, 3-[[(2-Chlor-6-methyl-phenyl)sulfonyl]-methyl]-N-(2,2-dimethyl-4-pyrrolidin-1-yl-cyclohexyl)-[1,2,4]oxadiazol-5-carbonsäure amid] reads 89%.
